Legend:
[1] = molecular target: Beta-2 adrenergic receptor (Homo sapiens) (UniProt P07550); assay: Inhibition of adrenergic beta-2 receptor (unknown origin) at 10 uM relative to control
[2] = molecular target: Beta-3 adrenergic receptor (Homo sapiens) (UniProt P13945); assay: Inhibition of adrenergic beta-3 receptor (unknown origin) at 10 uM relative to control
[3] = molecular target: D(1A) dopamine receptor (Homo sapiens) (UniProt P21728); assay: Inhibition of dopamine D1 receptor (unknown origin) at 10 uM relative to control
[4] = molecular target: D(2) dopamine receptor (Homo sapiens) (UniProt P14416); assay: Inhibition of dopamine D2 receptor (unknown origin) at 10 uM relative to control
[5] = molecular target: D(3) dopamine receptor (Homo sapiens) (UniProt P35462); assay: Inhibition of dopamine D3 receptor (unknown origin) at 10 uM relative to control
[6] = molecular target: D(4) dopamine receptor (Homo sapiens) (UniProt P21917); assay: Inhibition of dopamine D4 receptor (unknown origin) at 10 uM relative to control
[7] = molecular target: D(1B) dopamine receptor (Homo sapiens) (UniProt P21918); assay: Inhibition of dopamine D5 receptor (unknown origin) at 10 uM relative to control
[8] = molecular target: 5-hydroxytryptamine receptor 1A (Homo sapiens) (UniProt P08908); assay: Inhibition of serotonin 5-HT1A receptor (unknown origin) at 10 uM relative to control
[9] = molecular target: 5-hydroxytryptamine receptor 1B (Homo sapiens) (UniProt P28222); assay: Inhibition of serotonin 5-HT1B receptor (unknown origin) at 10 uM relative to control
[10] = molecular target: 5-hydroxytryptamine receptor 1D (Homo sapiens) (UniProt P28221); assay: Inhibition of serotonin 5-HT1D receptor (unknown origin) at 10 uM relative to control
[11] = molecular target: 5-hydroxytryptamine receptor 1E (Homo sapiens) (UniProt P28566); assay: Inhibition of serotonin 5-HT1E receptor (unknown origin) at 10 uM relative to control
[12] = molecular target: 5-hydroxytryptamine receptor 2A (Homo sapiens) (UniProt P28223); assay: Inhibition of serotonin 5-HT2A receptor (unknown origin) at 10 uM relative to control
[13] = molecular target: 5-hydroxytryptamine receptor 2B (Homo sapiens) (UniProt P41595); assay: Inhibition of serotonin 5-HT2B receptor (unknown origin) at 10 uM relative to control
[14] = molecular target: 5-hydroxytryptamine receptor 3A (Homo sapiens) (UniProt P46098); assay: Inhibition of serotonin 5-HT3 receptor (unknown origin) at 10 uM relative to control
[15] = molecular target: 5-hydroxytryptamine receptor 5A (Homo sapiens) (UniProt P47898); assay: Inhibition of serotonin 5-HT5A receptor (unknown origin) at 10 uM relative to control
[16] = molecular target: 5-hydroxytryptamine receptor 6 (Homo sapiens) (UniProt P50406); assay: Inhibition of serotonin 5-HT6 receptor (unknown origin) at 10 uM relative to control
[17] = molecular target: 5-hydroxytryptamine receptor 7 (Homo sapiens) (UniProt P34969); assay: Inhibition of serotonin 5-HT7A receptor (unknown origin) at 10 uM relative to control
[18] = molecular target: Sodium-dependent dopamine transporter (Homo sapiens) (UniProt Q01959); assay: Inhibition of DAT receptor (unknown origin) at 10 uM relative to control
[19] = molecular target: Sodium-dependent noradrenaline transporter (Homo sapiens) (UniProt P23975); assay: Inhibition of NET receptor (unknown origin) at 10 uM relative to control
[20] = molecular target: Sodium-dependent serotonin transporter (Homo sapiens) (UniProt P31645); assay: Inhibition of SERT receptor (unknown origin) at 10 uM relative to control
Homo sapiens = species: Homo sapiens; assay: Inhibition of GABAA receptor (unknown origin) at 10 uM relative to control
[21] = molecular target: Histamine H1 receptor (Homo sapiens) (UniProt P35367); assay: Inhibition of histamine H1 receptor (unknown origin) at 10 uM relative to control
[22] = molecular target: Histamine H2 receptor (Homo sapiens) (UniProt P25021); assay: Inhibition of histamine H2 receptor (unknown origin) at 10 uM relative to control
[23] = molecular target: Histamine H3 receptor (Homo sapiens) (UniProt Q9Y5N1); assay: Inhibition of histamine H3 receptor (unknown origin) at 10 uM relative to control
[24] = molecular target: Histamine H4 receptor (Homo sapiens) (UniProt Q9H3N8); assay: Inhibition of histamine H4 receptor (unknown origin) at 10 uM relative to control
[25] = molecular target: Muscarinic acetylcholine receptor M1 (Homo sapiens) (UniProt P11229); assay: Inhibition of muscarinic M1 receptor (unknown origin) at 10 uM relative to control
[26] = molecular target: Muscarinic acetylcholine receptor M3 (Homo sapiens) (UniProt P20309); assay: Inhibition of muscarinic M3 receptor (unknown origin) at 10 uM relative to control
[27] = molecular target: Muscarinic acetylcholine receptor M4 (Homo sapiens) (UniProt P08173); assay: Inhibition of muscarinic M4 receptor (unknown origin) at 10 uM relative to control
[28] = molecular target: Mu-type opioid receptor (Homo sapiens) (UniProt P35372); assay: Inhibition of opioid u receptor (unknown origin) at 10 uM relative to control
[29] = molecular target: Kappa-type opioid receptor (Homo sapiens) (UniProt P41145); assay: Inhibition of opioid kappa receptor (unknown origin) at 10 uM relative to control
[30] = molecular target: Delta-type opioid receptor (Homo sapiens) (UniProt P41143); assay: Inhibition of opioid delta receptor (unknown origin) at 10 uM relative to control
[31] = molecular target: Sigma non-opioid intracellular receptor 1 (Homo sapiens) (UniProt Q99720); assay: Inhibition of sigma1 receptor (unknown origin) at 10 uM relative to control

Measured: inhibition

Sequence of 5-hydroxytryptamine receptor 2A (Homo sapiens) (P28223 whole entry): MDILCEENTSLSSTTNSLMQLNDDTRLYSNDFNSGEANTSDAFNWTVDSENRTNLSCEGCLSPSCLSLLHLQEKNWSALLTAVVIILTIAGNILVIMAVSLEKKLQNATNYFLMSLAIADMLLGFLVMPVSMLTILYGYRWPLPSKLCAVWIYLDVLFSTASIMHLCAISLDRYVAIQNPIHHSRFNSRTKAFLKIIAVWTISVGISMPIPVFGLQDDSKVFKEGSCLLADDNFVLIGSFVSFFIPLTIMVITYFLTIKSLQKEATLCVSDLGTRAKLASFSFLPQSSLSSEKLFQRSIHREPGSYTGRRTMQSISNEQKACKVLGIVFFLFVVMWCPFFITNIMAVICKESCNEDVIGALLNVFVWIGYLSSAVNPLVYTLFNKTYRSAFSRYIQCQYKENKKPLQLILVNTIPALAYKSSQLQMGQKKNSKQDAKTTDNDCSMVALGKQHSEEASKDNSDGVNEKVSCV
Sequence of Histamine H4 receptor (Homo sapiens) (Q9H3N8 whole entry): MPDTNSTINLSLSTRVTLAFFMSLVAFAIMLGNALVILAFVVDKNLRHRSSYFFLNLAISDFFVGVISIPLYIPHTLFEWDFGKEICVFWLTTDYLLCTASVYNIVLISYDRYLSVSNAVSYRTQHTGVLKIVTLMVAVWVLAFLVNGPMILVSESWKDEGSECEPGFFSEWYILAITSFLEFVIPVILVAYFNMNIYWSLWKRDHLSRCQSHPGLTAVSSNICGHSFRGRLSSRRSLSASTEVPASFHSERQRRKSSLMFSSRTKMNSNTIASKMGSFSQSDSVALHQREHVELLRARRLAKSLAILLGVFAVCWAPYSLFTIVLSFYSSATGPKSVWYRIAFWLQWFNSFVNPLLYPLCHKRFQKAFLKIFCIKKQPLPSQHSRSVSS
Sequence of D(2) dopamine receptor (Homo sapiens) (P14416 whole entry): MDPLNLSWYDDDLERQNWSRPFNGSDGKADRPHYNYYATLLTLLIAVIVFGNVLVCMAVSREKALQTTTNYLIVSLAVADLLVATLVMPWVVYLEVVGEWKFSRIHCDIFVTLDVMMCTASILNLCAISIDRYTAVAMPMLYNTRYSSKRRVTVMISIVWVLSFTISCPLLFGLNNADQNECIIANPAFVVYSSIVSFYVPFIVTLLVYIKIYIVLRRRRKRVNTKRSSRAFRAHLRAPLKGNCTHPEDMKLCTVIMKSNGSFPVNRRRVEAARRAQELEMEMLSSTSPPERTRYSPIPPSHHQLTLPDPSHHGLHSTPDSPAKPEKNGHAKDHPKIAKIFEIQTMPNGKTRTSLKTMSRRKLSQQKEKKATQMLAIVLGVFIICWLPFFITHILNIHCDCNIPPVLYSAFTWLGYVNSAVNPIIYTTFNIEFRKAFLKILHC
Sequence of Mu-type opioid receptor (Homo sapiens) (P35372 whole entry): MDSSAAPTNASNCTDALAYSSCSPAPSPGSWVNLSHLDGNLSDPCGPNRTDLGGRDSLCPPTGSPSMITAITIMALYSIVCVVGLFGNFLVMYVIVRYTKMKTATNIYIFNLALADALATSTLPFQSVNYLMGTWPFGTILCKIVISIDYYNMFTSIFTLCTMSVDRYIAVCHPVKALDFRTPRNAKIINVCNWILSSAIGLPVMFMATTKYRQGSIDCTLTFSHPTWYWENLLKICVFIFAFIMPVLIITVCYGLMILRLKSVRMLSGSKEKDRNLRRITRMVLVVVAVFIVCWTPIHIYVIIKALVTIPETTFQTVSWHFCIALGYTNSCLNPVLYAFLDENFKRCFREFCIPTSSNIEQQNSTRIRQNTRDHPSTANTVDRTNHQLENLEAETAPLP
Sequence of Histamine H3 receptor (Homo sapiens) (Q9Y5N1 whole entry): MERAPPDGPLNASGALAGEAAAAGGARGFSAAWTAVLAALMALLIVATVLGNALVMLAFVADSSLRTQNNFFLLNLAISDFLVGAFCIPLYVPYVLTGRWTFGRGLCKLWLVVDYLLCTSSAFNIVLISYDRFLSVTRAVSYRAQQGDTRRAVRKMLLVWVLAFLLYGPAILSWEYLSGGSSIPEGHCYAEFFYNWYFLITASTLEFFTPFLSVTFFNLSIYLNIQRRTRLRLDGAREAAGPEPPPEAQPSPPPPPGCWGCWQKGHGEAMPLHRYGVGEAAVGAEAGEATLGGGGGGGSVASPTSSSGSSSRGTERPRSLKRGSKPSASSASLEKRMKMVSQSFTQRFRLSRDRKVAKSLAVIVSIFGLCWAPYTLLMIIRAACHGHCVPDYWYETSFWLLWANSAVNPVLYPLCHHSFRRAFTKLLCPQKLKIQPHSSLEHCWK
Sequence of Beta-3 adrenergic receptor (Homo sapiens) (P13945 whole entry, looked up): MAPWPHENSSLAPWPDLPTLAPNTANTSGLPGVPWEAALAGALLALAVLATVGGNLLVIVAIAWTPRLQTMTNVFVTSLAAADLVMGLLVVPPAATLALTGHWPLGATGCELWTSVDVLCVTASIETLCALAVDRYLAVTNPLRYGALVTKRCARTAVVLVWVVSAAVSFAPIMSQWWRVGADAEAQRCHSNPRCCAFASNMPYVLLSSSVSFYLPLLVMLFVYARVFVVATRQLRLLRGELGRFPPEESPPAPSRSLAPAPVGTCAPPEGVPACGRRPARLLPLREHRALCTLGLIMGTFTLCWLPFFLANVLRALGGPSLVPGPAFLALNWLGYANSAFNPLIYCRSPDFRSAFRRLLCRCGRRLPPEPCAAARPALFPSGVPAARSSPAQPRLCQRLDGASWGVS
Sequence of Muscarinic acetylcholine receptor M4 (Homo sapiens) (P08173 whole entry): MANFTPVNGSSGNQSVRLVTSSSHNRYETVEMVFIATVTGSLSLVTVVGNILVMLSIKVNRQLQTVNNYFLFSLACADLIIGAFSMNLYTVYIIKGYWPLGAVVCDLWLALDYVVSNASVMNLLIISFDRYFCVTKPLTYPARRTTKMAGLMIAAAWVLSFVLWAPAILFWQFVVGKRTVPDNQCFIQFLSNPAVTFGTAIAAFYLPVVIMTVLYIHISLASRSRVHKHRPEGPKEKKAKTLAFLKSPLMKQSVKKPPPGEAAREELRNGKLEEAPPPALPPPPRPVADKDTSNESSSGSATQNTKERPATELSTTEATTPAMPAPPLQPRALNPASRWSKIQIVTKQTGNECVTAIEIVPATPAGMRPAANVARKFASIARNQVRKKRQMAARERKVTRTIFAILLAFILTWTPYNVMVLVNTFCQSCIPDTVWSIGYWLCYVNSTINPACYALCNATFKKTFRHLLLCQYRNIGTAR
Sequence of D(4) dopamine receptor (Homo sapiens) (P21917 whole entry): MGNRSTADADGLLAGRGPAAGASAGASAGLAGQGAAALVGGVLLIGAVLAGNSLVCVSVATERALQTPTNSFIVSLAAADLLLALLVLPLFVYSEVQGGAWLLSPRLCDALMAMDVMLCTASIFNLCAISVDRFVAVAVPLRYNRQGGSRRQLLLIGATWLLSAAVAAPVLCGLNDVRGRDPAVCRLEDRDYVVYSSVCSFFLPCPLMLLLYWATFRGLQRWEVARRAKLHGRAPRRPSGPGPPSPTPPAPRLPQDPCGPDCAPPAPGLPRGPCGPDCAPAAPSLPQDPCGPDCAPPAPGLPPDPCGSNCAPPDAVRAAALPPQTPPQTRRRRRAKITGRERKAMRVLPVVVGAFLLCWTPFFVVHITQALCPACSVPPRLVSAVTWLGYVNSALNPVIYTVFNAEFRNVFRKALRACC
Sequence of 5-hydroxytryptamine receptor 7 (Homo sapiens) (P34969 whole entry): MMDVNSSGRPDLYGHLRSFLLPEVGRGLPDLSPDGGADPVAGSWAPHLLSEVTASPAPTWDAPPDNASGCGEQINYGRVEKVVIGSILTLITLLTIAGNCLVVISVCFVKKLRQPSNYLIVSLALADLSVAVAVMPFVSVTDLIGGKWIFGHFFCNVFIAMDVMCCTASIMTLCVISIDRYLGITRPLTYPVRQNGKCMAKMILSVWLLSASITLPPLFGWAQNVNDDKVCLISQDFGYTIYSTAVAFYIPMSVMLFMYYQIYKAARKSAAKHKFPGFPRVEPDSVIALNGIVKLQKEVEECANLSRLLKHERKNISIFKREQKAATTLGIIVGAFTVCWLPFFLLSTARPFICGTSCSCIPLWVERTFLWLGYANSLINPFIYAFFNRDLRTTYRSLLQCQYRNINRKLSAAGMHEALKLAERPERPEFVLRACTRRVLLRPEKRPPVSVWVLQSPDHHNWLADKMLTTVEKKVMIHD
Sequence of 5-hydroxytryptamine receptor 1E (Homo sapiens) (P28566 whole entry): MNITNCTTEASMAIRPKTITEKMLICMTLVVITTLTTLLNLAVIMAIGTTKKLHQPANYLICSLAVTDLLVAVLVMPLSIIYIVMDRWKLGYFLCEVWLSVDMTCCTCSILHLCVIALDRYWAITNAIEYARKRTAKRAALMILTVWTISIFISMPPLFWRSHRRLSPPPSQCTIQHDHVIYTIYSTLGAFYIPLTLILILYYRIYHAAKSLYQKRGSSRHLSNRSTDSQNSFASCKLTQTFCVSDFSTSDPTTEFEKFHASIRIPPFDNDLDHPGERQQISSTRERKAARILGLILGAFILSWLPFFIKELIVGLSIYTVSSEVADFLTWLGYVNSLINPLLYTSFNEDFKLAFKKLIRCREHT
Sequence of Histamine H2 receptor (Homo sapiens) (P25021 whole entry): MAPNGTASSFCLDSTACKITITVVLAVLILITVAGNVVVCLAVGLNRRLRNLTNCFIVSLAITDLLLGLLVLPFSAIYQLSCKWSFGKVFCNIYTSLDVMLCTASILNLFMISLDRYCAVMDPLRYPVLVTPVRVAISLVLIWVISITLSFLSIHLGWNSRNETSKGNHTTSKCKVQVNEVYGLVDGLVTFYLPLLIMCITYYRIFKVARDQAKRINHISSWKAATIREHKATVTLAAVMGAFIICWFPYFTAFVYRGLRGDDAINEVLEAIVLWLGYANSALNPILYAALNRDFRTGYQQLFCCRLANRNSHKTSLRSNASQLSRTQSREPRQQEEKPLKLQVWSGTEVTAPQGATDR
Sequence of Sigma non-opioid intracellular receptor 1 (Homo sapiens) (Q99720 whole entry): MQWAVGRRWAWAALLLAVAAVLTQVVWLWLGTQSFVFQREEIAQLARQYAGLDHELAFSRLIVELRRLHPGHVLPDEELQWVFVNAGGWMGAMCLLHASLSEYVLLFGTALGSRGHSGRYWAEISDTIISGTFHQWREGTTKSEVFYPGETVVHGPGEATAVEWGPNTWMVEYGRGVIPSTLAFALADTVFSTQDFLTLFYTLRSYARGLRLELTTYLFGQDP

O=C(Nc1ccc(-c2nc(-c3ccc(Cl)cc3)no2)cc1)C1CC(=O)N(Cc2ccco2)C1 (configuration not stated)
< 50%: all assays above

Reference: ChEMBL document CHEMBL5154921, “Discovery and Characterization of the First Nonpeptide Antagonists for the Relaxin-3/RXFP3 System” (J Med Chem, 2022)
